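Five concentrations, 48 hours, 96-well plates. GI50 = concentration required for 50% inhibition of growth. TGI marks complete inhibition of growth.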
Legend:
Experiment in all cases: DTP human tumour cell line panel, 48 h
A549 NSCLC = tested on: A549 NSCLC
COLO 205 colon = tested on: COLO 205 colon
DMS 114 small cell lung = tested on: DMS 114 small cell lung
HOP-62 NSCLC = tested on: HOP-62 NSCLC
HT29 colon = tested on: HT29 colon
OVCAR-4 ovarian = tested on: OVCAR-4 ovarian
SNB-19 CNS = tested on: SNB-19 CNS
KM20L2 colon = tested on: KM20L2 colon
HS 578T breast = tested on: HS 578T breast
NCI/ADR-RES ovarian = tested on: NCI/ADR-RES ovarian

SMILES | TGI (A549 NSCLC) [µM] | TGI (COLO 205 colon) [µM] | TGI (DMS 114 small cell lung) [µM] | TGI (HOP-62 NSCLC) [µM] | TGI (HT29 colon) [µM] | TGI (OVCAR-4 ovarian) [µM] | TGI (SNB-19 CNS) [µM] | TGI (KM20L2 colon) [µM] | GI50 (A549 NSCLC) [µM] | GI50 (DMS 114 small cell lung) [µM] | GI50 (HOP-62 NSCLC) [µM] | GI50 (HT29 colon) [µM] | GI50 (KM20L2 colon) [µM] | GI50 (OVCAR-4 ovarian) [µM] | GI50 (SNB-19 CNS) [µM] | GI50 (COLO 205 colon) [µM] | GI50 (HS 578T breast) [µM] | TGI (HS 578T breast) [µM] | GI50 (NCI/ADR-RES ovarian) [µM] | TGI (NCI/ADR-RES ovarian) [µM]
CCN(CC)CCCn1cnc2ncccc2c1=O | > 100 | > 100 | > 100 | > 100 | > 100 | > 100 | > 100 |  |  |  |  |  |  |  |  |  |  |  |  | 
CC1(Cl)CC2OC3(Br)C=CC(C)(O)C2(CC1Br)C3(C)C (stereo unspecified) | > 100 | > 100 | > 100 | > 100 | > 100 | > 100 | > 100 | > 100 |  |  |  |  |  |  |  |  |  |  |  | 
CSc1cccc(-n2c3nc(=O)n(C)c(=O)c-3nc3ccccc32)c1 | 16.2 | 11 | 14.9 | 45.3 | 15.9 | 21.6 | 65.9 | 15.4 |  |  |  |  |  |  |  |  |  |  |  | 
Cc1ccccc1C1=[N+]([O-])c2ccccc2C1=O |  | 29.1 | 27.4 | 57.2 | 27.7 |  | > 100 | 32.9 |  |  |  |  |  |  |  |  |  |  |  | 
COC(c1cccc(C(O)(C(F)(F)F)C(F)(F)F)c1)(C(F)(F)F)C(F)(F)F | 31.2 | 33.5 | 32.6 | 33.7 | 31.6 | 30.4 | 34.5 | 31.2 |  |  |  |  |  |  |  |  |  |  |  | 
CC[O-].CC[O-].O=C([CH-]C(=O)c1cccnc1)c1ccccc1.O=C([CH-]C(=O)c1cccnc1)c1ccccc1.[Ti+4] | > 100 |  | > 100 | > 100 | > 100 | > 100 | > 100 | > 100 | > 100 | > 100 | 48.4 | 57.1 | 62 | > 100 | 50 |  |  |  |  | 
CC(=O)Oc1cc(C)c2c(c1OC(C)=O)CC1(O2)[C@@H](C)CCC2[C@@]3(C)CC[C@H](OC(C)=O)C(C)(C)C3CC[C@]21C (stereo partly specified) | 33.2 | 3.15 | 4.49 | 8.3 | 19.6 |  | 29.8 | 28.3 |  |  |  |  |  |  |  |  |  |  |  | 
CN(C)CCN(C)CC1COC(C)(C)O1 (stereo unspecified) | > 100 | > 100 |  | > 100 | > 100 | > 100 | > 100 | > 100 |  |  |  |  |  |  |  |  |  |  |  | 
CCOC(=O)c1c(-c2ccccc2)oc(-c2ccccc2)c1C(=O)OCC | > 100 | > 100 | > 100 | > 100 | > 100 |  | > 100 | > 100 |  |  |  |  |  |  |  |  |  |  |  | 
Oc1ccc(CN2CCC(N3CCOCC3)CC2)c2cccnc12 | > 100 | > 100 |  | > 100 | > 100 | > 100 | > 100 |  | > 100 |  | 42.7 | 100 |  | 22.9 | 43.9 | 49.8 | 62.1 | > 100 | 29.2 | > 100
CC(=O)N1c2ccccc2C2=CC3C4C(=O)N(c5ccccc5)C(=O)C4C21C1C(=O)N(c2ccccc2)C(=O)C31 (stereo unspecified) | > 100 | > 100 | 44.1 |  | > 100 |  | > 100 | 70 |  |  |  |  |  |  |  |  |  |  |  | 
Cn1c2c(c3ccccc31)CCN(CCN1CCN(c3ccccc3)CC1)C2=O | > 100 | > 100 | > 100 |  | > 100 |  |  | > 100 |  |  |  |  |  |  |  |  |  |  |  | 
COc1ccc2c(c1O)C13CCN(C)C(C2)C1CCC1(C3)OCCO1 (stereo unspecified) | > 100 | > 100 |  | > 100 | > 100 | > 100 | > 100 |  |  |  |  |  |  |  |  |  |  | > 100 |  | > 100
COc1cc2c(cc1OCCCCCOc1cc3c(cc1OC)C(=O)N1CC(F)C[C@H]1C=N3)N=C[C@@H]1CC(F)CN1C2=O (stereo partly specified) | 2.87 | 0.465 |  | 0.222 | > 58.6 | 24.1 | > 100 |  | 0.158 |  | < 0.01 | 0.246 |  | 1.29 | 0.376 | 0.191 | 0.0581 | 0.246 | 0.553 | 9.87
CCOC(=O)c1sc2ncn(Cc3cccc(Br)c3)c(=O)c2c1C | > 100 | > 100 |  | 65.4 | > 100 | 81.3 | > 100 |  | 56.2 |  | 19.4 | 87.8 |  | 30.9 | > 100 | 61.5 | 38.6 | > 100 | 18.9 | > 100
N#Cc1cccc(OCc2nc(N)nc(N)c2-c2ccc(Cl)c(Cl)c2)c1 | > 100 | > 100 |  | > 100 | > 100 | > 100 | > 100 |  | 0.426 |  | 4.44 | 0.797 |  | > 100 | 4.28 | 5.3 | 4.41 | > 100 | 1.19 | > 100
Fc1ccc(-c2nn3c(-c4ccc(F)c(Cl)c4)nnc3s2)cc1 | > 50 | > 50 |  | > 50 | > 50 | 41 | > 50 |  | 21.2 |  | 27.5 | 22.9 |  | 10.1 | 20.1 | > 50 | > 50 | > 50 | 23.8 | > 50
O=c1c2c3c(sc2n2c(-c4cc(-c5ccccc5)no4)nnc2n1Cc1ccccc1)CCCC3 | > 86.5 | > 40.7 |  | 57 | > 100 | > 100 | > 100 |  | 10.5 |  | 14.8 | 29.2 |  | 19.2 | 31.8 | 1.23 | 18.7 | > 94.7 | 30.2 | > 100
Cc1cc(NCCCNc2ccnc3cc(Cl)ccc23)nc(N2CCN(C)CC2)n1 | 16.5 | 6.29 |  | 21 | 13.5 | 44.5 | 49.5 |  | 3.66 |  | 4.79 | 1.33 |  | 4.03 | 12.5 | 2.28 | 12.4 | 36.9 | 17.5 | 61.7
C/C=C/C/C=C/CCC(=O)[C@H]1O[C@H]1C(N)=O | 51.3 | 31.5 |  | 28.2 | 31.8 | 26.1 | 29.5 |  | 17.3 |  | 13 |  |  |  | 14.5 | 15.3 | 15.9 | > 100 |  | > 100

— PubChem BioAssay (NCI)
